# Source: PMC9968717, “Breakthrough: a first-in-class virtual simulator for dose optimization of ACE inhibitors in translational cardiovascular medicine” (Scientific Reports, 2023)
# Where a name gives a salt, the structure may show the parent alone.
# Legend:
# ACE = target: T1, ACE (Canis lupus familiaris, UniProt A0A8I3S3I6); experiment: Michaelis–Menten model of ACE inhibition by benazeprilat within the QSP model fit; format: in vivo, dogs (beagles); details: population estimate, beagles
# T1 construct: from tissue; host or cells: living healthy beagle dogs; ACE in free circulation (plasma) and in tissue
# T1 sequence (A0A8I3S3I6 31-1241): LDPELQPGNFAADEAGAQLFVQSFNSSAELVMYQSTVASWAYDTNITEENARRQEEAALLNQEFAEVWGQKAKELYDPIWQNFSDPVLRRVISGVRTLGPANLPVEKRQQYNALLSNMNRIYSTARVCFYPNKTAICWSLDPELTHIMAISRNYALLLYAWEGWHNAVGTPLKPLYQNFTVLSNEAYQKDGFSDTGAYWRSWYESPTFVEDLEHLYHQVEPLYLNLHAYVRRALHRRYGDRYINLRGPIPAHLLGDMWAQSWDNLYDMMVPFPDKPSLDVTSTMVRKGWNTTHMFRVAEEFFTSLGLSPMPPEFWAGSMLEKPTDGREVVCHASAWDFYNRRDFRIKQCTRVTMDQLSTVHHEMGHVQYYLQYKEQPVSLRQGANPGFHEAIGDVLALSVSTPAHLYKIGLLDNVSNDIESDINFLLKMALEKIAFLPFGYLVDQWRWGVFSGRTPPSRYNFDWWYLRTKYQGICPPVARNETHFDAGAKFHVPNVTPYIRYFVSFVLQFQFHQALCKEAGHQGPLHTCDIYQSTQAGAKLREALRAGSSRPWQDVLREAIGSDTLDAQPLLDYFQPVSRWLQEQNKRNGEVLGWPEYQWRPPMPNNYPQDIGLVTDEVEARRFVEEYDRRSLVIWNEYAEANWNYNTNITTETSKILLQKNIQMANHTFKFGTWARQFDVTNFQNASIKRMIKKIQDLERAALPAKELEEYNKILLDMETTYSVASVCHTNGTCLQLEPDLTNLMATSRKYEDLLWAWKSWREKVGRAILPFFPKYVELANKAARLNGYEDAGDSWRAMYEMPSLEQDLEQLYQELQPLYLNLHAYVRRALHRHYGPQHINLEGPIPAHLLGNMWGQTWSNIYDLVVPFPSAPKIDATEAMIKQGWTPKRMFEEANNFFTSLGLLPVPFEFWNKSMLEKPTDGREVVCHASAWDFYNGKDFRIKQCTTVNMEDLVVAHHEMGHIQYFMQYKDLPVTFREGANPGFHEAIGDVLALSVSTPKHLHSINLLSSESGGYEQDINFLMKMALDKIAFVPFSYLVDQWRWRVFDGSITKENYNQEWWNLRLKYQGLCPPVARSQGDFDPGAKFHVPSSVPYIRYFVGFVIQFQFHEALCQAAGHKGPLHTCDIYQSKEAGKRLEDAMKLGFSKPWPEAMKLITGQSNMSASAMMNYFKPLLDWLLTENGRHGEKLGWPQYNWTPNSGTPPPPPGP
# From the text: Benazeprilat primary mechanism of action is inhibiting ACE to prevent the catalysis of AngI into AngII. To account for this mechanism, a logistic saturation model was first implemented. […] The distribution of ACE across tissue (ts) and free circulation (fr) was also considered. The nomenclature used throughout Eq. (3) is consistent with previous descriptions of the Michaelis–Menten model[26].3 E˙fr=-k-1·Efr·Sfr+k1·ESfr-k-3·Efr·Ifr+k3·EIfr+k2·ESfrE˙Sfr=k-1·Efr·Sfr-k1·ESfr-k2·ESfrE˙Ifr=k-3·Efr·Ifr-k3·EIfrE˙ts=-k-1·Ets·Sts+k1·ESts-k-3·Ets·Its+k3·EIts+k2·EStsE˙Sts=k-1·Ets·Sts-k1·ESts-k2·EStsE˙Its=k-3·Ets·Its-k3·EIts
# Figure 3 Detailed model diagram. Detailed diagram of the final model structure. […] A Michaelis–Menten kinetic model of inhibitor, substrate, and enzyme interaction was used to describe the competitive inhibition of ACE by benazeprilat. k3 and k-3 were the parameters governing ACE-benazeprilat (enzyme-inhibitor) association and dissociation, while k1 and k-1 determined the rate of ACE-angiotensin (enzyme–substrate) association and dissociation. k2 controlled the production rate of angiotensin II from angiotensin I via ACE. […]
# The recorded data (yij) were imported into Monolix […] (Lixoft, France) and used to estimate population parameters (μ) and variance via the stochastic approximation expectation maximization algorithm (SAEM)[46]. […]
# [1] = NLME/QSP model fit of plasma benazeprilat pharmacokinetics after oral benazepril; format: in vivo, dogs (beagles); details: beagle, dog, population estimate, beagles, read-out: Clearance rate of benazeprilat (ClI), fixed effect (converted)
# Protocol: The PK portion of the base model was a conventional 2-compartment mammillary model with saturable exchange between the central and peripheral compartments. Building on this initial model, several modifications of the PK structure were evaluated. First, several standard compartment variations were tested i.e., using 1-, 2-, or 3-compartment disposition functions. Overall, a 2-compartment PK model outperformed the other candidate models based on the precision of individual parameters and overall quality of fit. Second, non-specific (low affinity, high capacity) binding of benazeprilat to plasma proteins was represented by a 3rd compartment within the central compartment, i.e., representing the free circulation of benazeprilat. The volume of the non-specific binding compartment (Vns) is a representation of the relative binding capacity of benazeprilat which is distributed in plasma but is not freely circulating or interacting with ACE. […] As is typical, quantity of benazeprilat passed between compartments is called Im, n, for inhibitor, where indexes m and n represent origin and destination compartments, respectively. […] Doses are administered in benazepril hcl, but are measured as the metabolite-benazeprilat. […] Dogs were sampled in the same order at each time point and exact time of sampling was recorded. […] The benazepril dose was calculated to the nearest 1.25 mg increment. […]
# [2] = dog, in vivo; cited from earlier work
# ACE activity = details: dogs, cited from earlier work; for Duration of ACE suppression: single dose 0.5 mg/kg
# [3] = Animal safety monitoring of study dogs given oral benazepril; format: in vivo; details: healthy beagles; benazepril PO 0.125 mg/kg q12h, 0.25 mg/kg q12h, 0.5 mg/kg q24h (crossover)
# From the text: All study dogs received all oral doses of benazepril as intended. Dogs were monitored for adverse effects associated with benazepril labeling as well those associated with general animal welfare e.g., vomiting, diarrhea, inappetence, weakness/hypotension, fatigue, incoordination, hypercreatininemia.
# Nine purpose-bred laboratory beagles (5 castrated males and 4 spayed females), 40–42 months old, weighing 9.0–13.5 kg were randomized based on body weight and sex into three oral dosing groups of benazepril. Systemic and cardiovascular health of all dogs was confirmed prior to the study with physical examination, routine laboratory screening (complete blood count, serum biochemical analysis), blood pressure measurement, and echocardiography.
# This 35-day prospective study was divided into three periods with three different benazepril dosing groups: (A) 0.125 mg/kg q12hr PO, (B) 0.25 mg/kg q12hr PO, and (C) 0.5 mg/kg q24hr PO. All dogs received all treatments using a […] crossover (ABC/BCA/CAB) design. Dogs were sampled in the same order at each time point and exact time of sampling was recorded. […]
# Venous blood samples were collected from an external jugular or cephalic vein with a 1 inch, 20-gauge or 22-gauge needle attached to a 6 mL syringe. […] Samples for complete blood counts or serum chemistry panels were analyzed by the Iowa State Clinical Pathology Laboratory.
# [4] = single PO dose, ref 2 (b6), ref 17 King et al.
Structure (SMILES),"Rate of ACE-benazeprilat dissociation in vivo, scaled (k3s), fixed effect (ACE)",clearance [1],Dose up to which safety has been established [2],Dosage from which ACE inhibition in plasma was independent of dosage (ACE activity; [4]),Duration of suppression of ACE activity (ACE activity; [4]),Duration of ACE suppression (ACE activity),Adverse effects [3],Serial complete blood counts and chemistry panels: hematologic or biochemical abnormalities [3]
O=C(O)CN1C(=O)[C@@H](N[C@@H](CCc2ccccc2)C(=O)O)CCc2ccccc21 [benazeprilat],7.0 s⁻¹,455 mL/min,–,–,–,–,–,–
"CCOC(=O)[C@H](CCc1ccccc1)N[C@H]1CCc2ccccc2N(CC(=O)O)C1=O [benazepril, Benazepril hydrochloride]",–,–,up to 1 mg/kg q24h,≥ 0.25 mg/kg,up to 24 h,< 12 h,No adverse effects were observed,no evidence of hematologic or biochemical abnormalities
CCOC(=O)[C@H](CCc1ccccc1)N[C@@H](C)C(=O)N1CCC[C@H]1C(=O)O [enalapril],–,–,–,–,–,< 12 h,–,–
